Measured values published in ChEMBL document CHEMBL3399961, “Sulfamic acid promoted one-pot three-component synthesis and cytotoxic evaluation of spirooxindoles” (Bioorg Med Chem Lett, 2015).

Columns and labels:
Format in all cases: functional, cell-based
A549 = experiment: Cytotoxicity against human A549 cells after 48 hrs by MTT assay; conditions: A549, 48 h
MDA-MB-231 = experiment: Cytotoxicity against human MDA-MB-231 cells after 48 hrs by MTT assay; conditions: MDA-MB-231, 48 h
DU-145 = experiment: Cytotoxicity against human DU145 cells after 48 hrs by MTT assay; conditions: DU-145, 48 h

Compound	IC50 (A549)	IC50 (MDA-MB-231)	IC50 (DU-145)
O=C1N(Cc2ccc3c(c2)OCO3)c2ccccc2C12c1c(-c3ccccc3)n[nH]c1Nc1[nH]c(=O)[nH]c(=O)c12 (stereo not given)	17.4 µM	20.2 µM	19.6 µM
O=C1N(Cc2ccc3c(c2)OCO3)c2ccc(Cl)cc2C12c1c(-c3ccccc3)n[nH]c1Nc1[nH]c(=O)[nH]c(=O)c12 (stereo not given)	26.3 µM	15.9 µM	24.4 µM
O=C1N(Cc2ccc3c(c2)OCO3)c2ccc(Br)cc2C12c1c(-c3ccccc3)n[nH]c1Nc1[nH]c(=O)[nH]c(=O)c12 (stereo not given)	14.8 µM	13.6 µM	16.5 µM
COc1cc(CN2C(=O)C3(c4cc(Cl)ccc42)c2c(-c4ccccc4)n[nH]c2Nc2[nH]c(=O)[nH]c(=O)c23)cc(OC)c1OC (stereo not given)	31.3 µM	39.8 µM	32.6 µM
COc1cc(CN2C(=O)C3(C4=C(COC4=O)Nc4[nH]nc(-c5ccccc5)c43)c3cc(Cl)ccc32)cc(OC)c1OC (stereo not given)	19.9 µM	19.4 µM	20.5 µM
O=C1Nc2ccccc2C12c1c(-c3ccccc3)n[nH]c1Nc1[nH]c(=O)[nH]c(=O)c12 (stereo not given)	17.7 µM	35.2 µM	18.3 µM
O=C1Nc2ccc(F)cc2C12c1c(-c3ccccc3)n[nH]c1Nc1[nH]c(=O)[nH]c(=O)c12 (stereo not given)	25.2 µM	75.2 µM	42.3 µM
O=C1Nc2c(F)cccc2C12c1c(-c3ccccc3)n[nH]c1Nc1[nH]c(=O)[nH]c(=O)c12 (stereo not given)	18.2 µM	66.9 µM	20.7 µM
O=C1Nc2ccc(Cl)cc2C12c1c(-c3ccccc3)n[nH]c1Nc1[nH]c(=O)[nH]c(=O)c12 (stereo not given)	7.92 µM	68.4 µM	15.8 µM
O=C1Nc2ccc(Br)cc2C12c1c(-c3ccccc3)n[nH]c1Nc1[nH]c(=O)[nH]c(=O)c12 (stereo not given)	21.6 µM	48.2 µM	30.5 µM
O=C1Nc2ccc(I)cc2C12c1c(-c3ccccc3)n[nH]c1Nc1[nH]c(=O)[nH]c(=O)c12 (stereo not given)	12.5 µM	46.1 µM	10.4 µM
Cc1ccc2c(c1)C1(C(=O)N2)c2c(-c3ccccc3)n[nH]c2Nc2[nH]c(=O)[nH]c(=O)c21 (stereo not given)	7.82 µM	63.2 µM	9.63 µM
COc1ccc2c(c1)C1(C(=O)N2)c2c(-c3ccccc3)n[nH]c2Nc2[nH]c(=O)[nH]c(=O)c21 (stereo not given)	23.9 µM	28.5 µM	22.9 µM
O=C1Nc2ccc([N+](=O)[O-])cc2C12c1c(-c3ccccc3)n[nH]c1Nc1[nH]c(=O)[nH]c(=O)c12 (stereo not given)	7.82 µM	63.2 µM	9.63 µM
O=C1N(Cc2ccccc2)c2ccccc2C12c1c(-c3ccccc3)n[nH]c1Nc1[nH]c(=O)[nH]c(=O)c12 (stereo not given)	36.2 µM	13.1 µM	18.2 µM
O=C1N(Cc2ccccc2)c2ccc(Cl)cc2C12c1c(-c3ccccc3)n[nH]c1Nc1[nH]c(=O)[nH]c(=O)c12 (stereo not given)	19.9 µM	12.6 µM	20.4 µM
O=C1N(Cc2ccccc2)c2ccc(Br)cc2C12c1c(-c3ccccc3)n[nH]c1Nc1[nH]c(=O)[nH]c(=O)c12 (stereo not given)	25.4 µM	6.33 µM	23.7 µM
COc1ccc2c(c1)C1(C(=O)N2Cc2ccccc2)c2c(-c3ccccc3)n[nH]c2Nc2[nH]c(=O)[nH]c(=O)c21 (stereo not given)	16.8 µM	14.5 µM	21.6 µM

Compound	IC50 (A549)	IC50 (MDA-MB-231)	IC50 (DU-145)
O=C1OCC2=C1C1(C(=O)Nc3ccccc31)c1c(-c3ccccc3)n[nH]c1N2 (stereo not given)	13.5 µM	48.9 µM	25.2 µM
O=C1OCC2=C1C1(C(=O)Nc3ccc(F)cc31)c1c(-c3ccccc3)n[nH]c1N2 (stereo not given)	25.2 µM	34.6 µM	28.5 µM
O=C1OCC2=C1C1(C(=O)Nc3c(F)cccc31)c1c(-c3ccccc3)n[nH]c1N2 (stereo not given)	37 µM	52.3 µM	37.3 µM
O=C1OCC2=C1C1(C(=O)Nc3ccc(Cl)cc31)c1c(-c3ccccc3)n[nH]c1N2 (stereo not given)	50.1 µM	55.2 µM	41.2 µM
O=C1OCC2=C1C1(C(=O)Nc3ccc(Br)cc31)c1c(-c3ccccc3)n[nH]c1N2 (stereo not given)	31.6 µM	25.1 µM	20.5 µM
O=C1OCC2=C1C1(C(=O)Nc3ccc(I)cc31)c1c(-c3ccccc3)n[nH]c1N2 (stereo not given)	32.8 µM	19.8 µM	21.6 µM
Cc1ccc2c(c1)C1(C(=O)N2)C2=C(COC2=O)Nc2[nH]nc(-c3ccccc3)c21 (stereo not given)	15.8 µM	62.1 µM	12.9 µM
COc1ccc2c(c1)C1(C(=O)N2)C2=C(COC2=O)Nc2[nH]nc(-c3ccccc3)c21 (stereo not given)	50.1 µM	54.7 µM	43.6 µM
O=C1OCC2=C1C1(C(=O)Nc3ccc([N+](=O)[O-])cc31)c1c(-c3ccccc3)n[nH]c1N2 (stereo not given)	51.3 µM	50.1 µM	38.5 µM
O=C1OCC2=C1C1(C(=O)N(Cc3ccccc3)c3ccccc31)c1c(-c3ccccc3)n[nH]c1N2 (stereo not given)	35.4 µM	31.7 µM	15.9 µM
O=C1OCC2=C1C1(C(=O)N(Cc3ccccc3)c3ccc(Cl)cc31)c1c(-c3ccccc3)n[nH]c1N2 (stereo not given)	50.2 µM	3.9 µM	35.3 µM
O=C1OCC2=C1C1(C(=O)N(Cc3ccccc3)c3ccc(Br)cc31)c1c(-c3ccccc3)n[nH]c1N2 (stereo not given)	15.8 µM	12.5 µM	8.46 µM
COc1ccc2c(c1)C1(C(=O)N2Cc2ccccc2)C2=C(COC2=O)Nc2[nH]nc(-c3ccccc3)c21 (stereo not given)	14.5 µM	5.12 µM	15.2 µM
O=C1OCC2=C1C1(C(=O)N(Cc3ccc4c(c3)OCO4)c3ccccc31)c1c(-c3ccccc3)n[nH]c1N2 (stereo not given)	41.2 µM	10.1 µM	11.7 µM
O=C1OCC2=C1C1(C(=O)N(Cc3ccc4c(c3)OCO4)c3ccc(Cl)cc31)c1c(-c3ccccc3)n[nH]c1N2 (stereo not given)	19.9 µM	0.35 µM	15.2 µM
O=C1OCC2=C1C1(C(=O)N(Cc3ccc4c(c3)OCO4)c3ccc(Br)cc31)c1c(-c3ccccc3)n[nH]c1N2 (stereo not given)	63.4 µM	1.92 µM	13.6 µM
O=c1[nH]cc(F)c(=O)[nH]1 [FLUOROURACIL]	7.51 µM	5.82 µM	6.37 µM
